The test system of one assay is vav. In words: vav protein expression (Western blot, immunocytochemistry). It counts as cell-based, human. The protocol:
Western blots: Equal amounts of extract (30 μg) were added to 8 μl of electrophoresis sample buffer (Firma Roth; Karlsruhe, Germany). After boiling, the extracts were loaded on 15% SDS-PAGE gels and electrophoretically separated. Proteins were transferred to nitrocellulose membranes, and detection was performed with the ECL Western blotting analysis system (Amersham). […]
Immunocytochemical analysis: Immunocytochemistry was performed as described in Atreya et al., supra and Finotto et al., J. Exp. Med. 193:1247-1260 (2001)). […] Cells were rinsed with PBS, and nuclei were counterstained with Hoechst33342 blue for fluorescence (Molecular Probes; Burlingame, Calif., USA). Finally, cells were washed in PBS and analyzed with an Olympus Microscope. Six to ten high-power fields were finally analyzed in all patients per condition, and selected high-power fields were further analyzed by confocal laser microscopy.

Assay [1] relates to primary CD4+ T lymphocytes. In words: Mitochondrial membrane potential (JC-1, FACS). Particulars: 5 days.
In the next assay the test system is CD45RO memory T cells. Nature of the assay: Annexin V/propidium iodide FACS apoptosis of stimulated CD45RO T cells. It counts as cell-based, human. Particulars: rIL-2, anti-CD3 plus anti-CD28; 5 days; more pronounced than in CD45RA T cells. From the text: Isolation of primary CD4^+ T lymphocytes and lamina propria cells: Human peripheral blood mononuclear cells (PBMCs) from healthy volunteers (25-42 years of age) and patients with Crohn's disease (31-65 years of age) were isolated using Ficoll-Hypaque gradients. PBMCs were further purified using CD4 monoclonal antibodies attached to immunomagnetic beads according to the manufacturer's protocol, followed by treatment with Detachabead (Dynal; Oslo, Norway). In some cases, CD4^+ T cells were further separated by negative selection techniques using CD45RO or CD45RA monoclonal antibodies (PharMingen; Heidelberg, Germany) and immunomagnetic beads (Dynal). […]
For FACS analysis, apoptotic cells were detected by staining with annexin V and propidium iodide using the Annexin V FITC Apoptosis Detection Kit I (PharMingen) (Atreya et al., Nat. Med. 6:583-588 (2000)). […] To verify the results obtained with the annexin V/propidium iodide staining, analysis of T cells displaying DNA fragmentation was also determined by the Nicoletti technique, as described in (Nicoletti et al., J. Immunol. Methods 139:271-279 (1991)). […] Finally, cells were analyzed on a FACScan flow cytometer. […]

The subject of assay [2] is primary CD4+ T lymphocytes. Nature of the assay: Annexin V/propidium iodide FACS apoptosis of stimulated primary blood CD4+ T lymphocytes. It counts as cell-based, human. Particulars: for apoptosis induction during the first 2 days after administration: kinetic studies; for apoptosis of primary blood CD4+ T lymphocytes: day 5. From the text: Isolation of primary CD4^+ T lymphocytes and lamina propria cells: Human peripheral blood mononuclear cells (PBMCs) from healthy volunteers (25-42 years of age) and patients with Crohn's disease (31-65 years of age) were isolated using Ficoll-Hypaque gradients. PBMCs were further purified using CD4 monoclonal antibodies attached to immunomagnetic beads according to the manufacturer's protocol, followed by treatment with Detachabead (Dynal; Oslo, Norway). In some cases, CD4^+ T cells were further separated by negative selection techniques using CD45RO or CD45RA monoclonal antibodies (PharMingen; Heidelberg, Germany) and immunomagnetic beads (Dynal). […] Lamina propria mononuclear cells (LPMCs) from patients with IBD were isolated from gut specimens using a short-term (5-minute) digestion protocol with collagenase V, hyaluronidase (Sigma-Aldrich; St. Louis, Mo., USA), and DNase (Roche; Mannheim, Germany), as recently described in detail in Holtmann et al., Eur. J. Immunol. 32:3142-3151 (2002). Briefly, specimens were washed in calcium- and magnesium-free HBSS (HBSS-CMF), cut into 0.5-cm pieces, and incubated twice in HBSS containing EDTA (0.37 mg/ml) and DTT (0.145 mg/ml) at 37° C. for 15 minutes, followed by subsequent digestion for 5 minutes with collagenase V 400 (1 mg/ml), deoxyribonuclease (0.1 mg/ml DNase), and hyaloronidase (0.1 mg/ml) in a shaking incubator at 37° C. The digested tissue was washed twice in RPMI medium containing 10% FCS and centrifuged. The tissue was finally mechanically homogenized (DAKO homogenizer; Hamburg, Germany) for 4 minutes, and cells were filtered through a sterile 40-μm cell strainer (Falcon; San Diego, Calif., USA).
Such CD28 costimulation is known to prevent apoptosis of primary T cells during T cell receptor (TCR) stimulation through activation of bcl-x, and NF-κB (Noel et al., J. Immunol. 157:636-647 (1996); Radvanyi et al., J. Immunol. 156:1788-1798 (1996); Khoshnan et al., J. Immunol. 165:1743-1754 (2000)). […] In addition, recombinant IL-2 (R&D Systems; Wiesbaden, Germany) was used at a final concentration of 40 U/ml in all experiments. Lamina propria T lymphocytes were stimulated with antibodies to CD2 (4 μg/ml; Immunotech; Marseille, France) and CD28 (1 μg/ml). […] To block CD95L-mediated (FasL-mediated) apoptosis, the NOK-1 antibody (4 μg/ml, PharMingen) was used whose Fab fragments bind to human CD95L (FasL) (Jodo et al., J. Immunol. 165:5487-5494 (2000)). Recombinant human FasL (Alexis Biochemicals; Heidelberg, Germany) was used as a positive control for the NOK-1 antibody (10 μg/ml).
For FACS analysis, apoptotic cells were detected by staining with annexin V and propidium iodide using the Annexin V FITC Apoptosis Detection Kit I (PharMingen) (Atreya et al., Nat. Med. 6:583-588 (2000)). In brief, T cells were washed twice in PBS, and the pellet was resuspended in annexin V binding buffer (PharMingen) at a concentration of 10^6 cells per milliliter. Annexin V FITC and propidium iodide were added (5 ill of each per 10^5 cells). Samples were gently mixed and incubated for 15 minutes at room temperature in the dark before FACS analysis. To verify the results obtained with the annexin V/propidium iodide staining, analysis of T cells displaying DNA fragmentation was also determined by the Nicoletti technique, as described in (Nicoletti et al., J. Immunol. Methods 139:271-279 (1991)). 10^6 T cells were fixed in 70% ethanol, washed once in HBSS, resuspended in 1 ml of HBSS and 1 ml of phosphate citric acid buffer (0.2 mol/l Na2PO4 and 0.004 mol/l citric acid [pH 7.8]), and incubated at room temperature for 5 minutes. After centrifugation, cells were resuspended in 1 ml of HBSS containing 20 μg/ml propidium iodide and 10 U DNase-free RNase A and incubated at room temperature for 30 minutes. Finally, cells were analyzed on a FACScan flow cytometer. Because of the fragmentation of DNA, apoptotic cells appear as hypodiploid in the DNA histogram.

[3] abbreviates: stimulated through the TCR/CD3 complex plus CD28.
The mark [4] stands for this setting: stimulated with anti-CD3 antibodies alone.

The values below come from patent publication US7524851B2 (Robert Bosch Gesellschaft fur Medizinische Forschung (RBMF), priority 2003, dated 2009).

On to `Sc1ncnc2nc[nH]c12` [6-MP, 6-mercaptopurine], for which the “expression of the guanosine exchange factor vav” value with vav is on record as “induced”. Besides, in assay [1], the “ΔΨm in primary T cells” value is “loss of ΔΨm”. Further, the “apoptosis of CD45RO memory T cells” value in the assay with CD45RO memory T cells is reported as “induced apoptosis”. Also, the “apoptosis induction during the first 2 days after administration” value in assay [2] was “no apoptosis induction”. Moreover, the “apoptosis of primary blood CD4+ T lymphocytes” value is “induced apoptosis” in assay [2] (setting [3]) and “no apoptosis” in assay [2] (setting [4]).

Take `Cn1cnc([N+](=O)[O-])c1Sc1ncnc2nc[nH]c12` [azathioprine, Azathioprine]: the “expression of the guanosine exchange factor vav” value in the assay with vav is on record as “induced”. Moreover, the “ΔΨm in primary T cells” value in assay [1] was “loss of ΔΨm”. The “apoptosis of CD45RO memory T cells” value with CD45RO memory T cells is recorded as “induced apoptosis”. The “concentration at which T cell apoptosis occurred” value in assay [2] (FIGS. 1a and 1b) amounted to 5 µM. Also, in assay [2] (drug added at day 5, annexin V/propidium iodide at day 10), the “apoptosis of already preactivated T lymphocytes” value is recorded as “induced apoptosis”. For the same compound, the “apoptosis induction during the first 2 days after administration” value in assay [2] was “no apoptosis induction”. For the same compound, the “apoptosis of primary blood CD4+ T lymphocytes” value in assay [2] (setting [3]) is “induced apoptosis”; in assay [2] (setting [4]), “no apoptosis”.
